Laboratory results published in the NIST ThermoML archive (doi:10.1016/j.tca.2013.03.031).
± gives the expanded uncertainty stated by the source.

Settings: 101.33 kPa, Liquid, Vibrating tube method

mass density (288.15 K) | mass density (293.15 K) | mass density (298.15 K) | mass density (303.15 K) | mass density (308.15 K) | mass density (313.15 K) | Structure (SMILES)
819.786 ± 0.65 kg/m3 | 815.497 ± 0.64 kg/m3 | 811.198 ± 0.64 kg/m3 | 806.887 ± 0.63 kg/m3 | 802.562 ± 0.63 kg/m3 | 798.222 ± 0.63 kg/m3 | CCCCCC(C)=O [2-heptanone]
951.178 ± 0.23 kg/m3 | 946.713 ± 0.23 kg/m3 | 942.243 ± 0.23 kg/m3 | 937.767 ± 0.23 kg/m3 | 933.285 ± 0.23 kg/m3 | 928.795 ± 0.23 kg/m3 | O=C1CCCCC1 [cyclohexanone]
1259.99 ± 0.45 kg/m3 | 1252.77 ± 0.44 kg/m3 | 1245.49 ± 0.44 kg/m3 | 1238.18 ± 0.43 kg/m3 | 1230.84 ± 0.42 kg/m3 | 1223.46 ± 0.42 kg/m3 | ClCCCl [1,2-dichloroethane]

Structure (SMILES) | mass density (288.15 K) | mass density (293.15 K) | mass density (298.15 K) | mass density (303.15 K) | mass density (308.15 K) | mass density (313.15 K)
CCC(C)=O [butanone] | 810.262 ± 0.24 kg/m3 | 805.058 ± 0.24 kg/m3 | 799.828 ± 0.24 kg/m3 | 794.565 ± 0.24 kg/m3 | 789.273 ± 0.24 kg/m3 | 783.946 ± 0.24 kg/m3
ClC(Cl)C(Cl)Cl [1,1,2,2-tetrachloroethane] | 1601.45 ± 2.3 kg/m3 | 1593.65 ± 2.3 kg/m3 | 1585.87 ± 2.3 kg/m3 | 1578.07 ± 2.3 kg/m3 | 1570.27 ± 2.2 kg/m3 | 1562.45 ± 2.2 kg/m3
